Our source for the MIC and CC50 values is ChEMBL document CHEMBL4393656, “Cationic biaryl 1,2,3-triazolyl peptidomimetic amphiphiles targeting Clostridioides (Clostridium) difficile: Synthesis, antibacterial evaluation and an in vivo C. difficile infection model” (Eur J Med Chem, 2019).

In one data set the test system is Enterococcus faecalis. The data set is described as follows: Growth inhibition of Enterococcus faecalis ATCC 29212 incubated in MHB broth for 24 hrs. It is filed as organism-based.
The test system of another data set is Klebsiella pneumoniae. Put plainly: Growth inhibition of Klebsiella pneumoniae ATCC 700603 incubated for 18 hrs. It is filed as organism-based.
A further data set deals with Pseudomonas aeruginosa. Put plainly: Growth inhibition of Pseudomonas aeruginosa ATCC 27853 incubated for 18 hrs. It is filed as organism-based.
Data set [1] concerns Clostridioides difficile. Put plainly: Antibacterial activity against Clostridium difficile NSW132 RT027 incubated for 2 to 4 hrs in pre-reduced brucella broth supplemented with haemin/vitamin K and further incubation in anaerobic condition for 48 hrs. The data set is classed as functional.
Data set [2] is described as follows: Cytotoxicity against HEK293 cells assessed as decrease in cell viability after 20 hrs by resazurin dye-based fluorescence assay. To be noted: human. In general terms: Alamar Blue is a resazurin reagent that responds to reducing activity.
A further data set relates to Acinetobacter baumannii. The data set is described as follows: Growth inhibition of Acinetobacter baumannii ATCC 19606 incubated for 18 hrs without shaking by absorbance based monochromator plate reader analysis. It is filed as organism-based, ATCC 19606 = CIP 70.34 = JCM 6841. Conditions: in vitro.
A further data set relates to Streptococcus pneumoniae. The data set is described as follows: Growth inhibition of Streptococcus pneumoniae ATCC 49619 incubated in MHB medium with lysed horse blood and 5% CO2 for 24 hrs. The data set is classed as organism-based.
Data set [3] deals with Staphylococcus aureus. The data set is described as follows: Growth inhibition of Staphylococcus aureus ATCC 29213 incubated in MHB broth for 24 hrs. It is filed as organism-based.
Another data set relates to Escherichia coli. Put plainly: Growth inhibition of Escherichia coli ATCC 25922 incubated for 18 hrs. It is filed as organism-based.
The subject of data set [4] is Clostridioides difficile. The data set is described as follows: Antibacterial activity against Clostridium difficile ATCC 700057 incubated for 2 to 4 hrs in pre-reduced brucella broth supplemented with haemin/vitamin K and further incubation in anaerobic condition for 48 hrs. It is filed as functional.
The subject of data set [5] is Staphylococcus aureus. The data set is described as follows: Growth inhibition of methicillin-resistant Staphylococcus aureus ATCC 43300 incubated for 18 hrs. The data set is classed as organism-based.

Bounds are passed on as bounds.

For `CC(C)CCOc1ccc2ccccc2c1-c1c(OCc2cn([C@H](CCCCN)C(=O)N[C@H](CCCNC(=N)N)C(=O)NCCc3ccccc3)nn2)ccc2ccccc12.Cl.Cl`, the MIC in the data set on Enterococcus faecalis was found to be 4 µg/mL; with Klebsiella pneumoniae it was 16 µg/mL; in the data set with Pseudomonas aeruginosa, 32 µg/mL; with Clostridioides difficile [1], 32 µg/mL; in the data set on Acinetobacter baumannii, 8 µg/mL; with Streptococcus pneumoniae it was 8 µg/mL. Moreover, the MIC with Staphylococcus aureus [3] is 8 µg/mL; in the data set with Escherichia coli it was > 32 µg/mL; in the data set with Clostridioides difficile [4], 16 µg/mL; in the data set on Staphylococcus aureus [5], 2 µg/mL. Also, the CC50 at 20 h in data set [2] was determined as 15.2 µg/mL.
Consider `CC(C)CCOc1ccccc1-c1ccccc1OCc1cn([C@H](CCCCN)C(=O)NC2CCCCC2)nn1.Cl`, for which the MIC is 16 µg/mL against Enterococcus faecalis; > 32 µg/mL against Klebsiella pneumoniae; 32 µg/mL against Pseudomonas aeruginosa; 32 µg/mL with Clostridioides difficile [1]; 32 µg/mL in the data set with Acinetobacter baumannii; 8 µg/mL with Streptococcus pneumoniae. Also, the MIC in the data set on Staphylococcus aureus [3] was 8 µg/mL; against Escherichia coli it was > 32 µg/mL; against Clostridioides difficile [4], 16 µg/mL; with Staphylococcus aureus [5], 8 µg/mL. Also, the CC50 at 20 h in [2] is > 32 µg/mL.
On to `CC(C)CCOc1ccc2ccccc2c1-c1c(OCc2cn([C@H](CCCCN)C(=O)N[C@H](CCCNC(=N)N)C(=O)N3CCCCC3)nn2)ccc2ccccc12.Cl.Cl`, for which the MIC in the data set on Enterococcus faecalis came to 8 µg/mL; in the data set with Klebsiella pneumoniae, 16 µg/mL; with Pseudomonas aeruginosa, 16 µg/mL; with Clostridioides difficile [1] it was 32 µg/mL; against Acinetobacter baumannii, 8 µg/mL; against Streptococcus pneumoniae it was 8 µg/mL. Further, the MIC with Staphylococcus aureus [3] is 8 µg/mL; against Escherichia coli, 32 µg/mL; with Clostridioides difficile [4], 16 µg/mL; with Staphylococcus aureus [5], 2 µg/mL. Moreover, the CC50 at 20 h in data set [2] was determined as 16.8 µg/mL.
In the case of `CC(C)CCOc1ccccc1-c1ccccc1OCc1cn([C@H](CCCCN)C(=O)N[C@H](CCCNC(=N)N)Cn2cc(CC3CCCCC3)nn2)nn1.Cl.Cl`, the MIC in the data set with Enterococcus faecalis is 4 µg/mL; against Klebsiella pneumoniae, 16 µg/mL; in the data set on Pseudomonas aeruginosa, 32 µg/mL; in the data set on Clostridioides difficile [1] it was 16 µg/mL; against Acinetobacter baumannii it was 8 µg/mL; in the data set on Streptococcus pneumoniae, 8 µg/mL. For the same compound, the MIC in the data set with Staphylococcus aureus [3] worked out at 4 µg/mL; in the data set on Escherichia coli, 8 µg/mL; in the data set with Clostridioides difficile [4], 16 µg/mL; in the data set with Staphylococcus aureus [5], 2 µg/mL. In addition, in data set [2], the CC50 at 20 h stood at 19.1 µg/mL.
Consider `CC(C)CCOc1ccccc1-c1ccccc1OCc1cn([C@H](CCCNC(=N)N)C(=O)NC2CC2)nn1.Cl`, for which the MIC was 32 µg/mL against Enterococcus faecalis; > 32 µg/mL in the data set on Klebsiella pneumoniae; > 32 µg/mL with Pseudomonas aeruginosa; 128 µg/mL with Clostridioides difficile [1]; > 32 µg/mL in the data set with Acinetobacter baumannii; 8 µg/mL in the data set with Streptococcus pneumoniae. The MIC in the data set with Staphylococcus aureus [3] was 16 µg/mL; against Escherichia coli it was > 32 µg/mL; against Clostridioides difficile [4] it was 64 µg/mL. The CC50 at 20 h in [2] is 20 µg/mL.
Take `CC(C)CCOc1ccccc1-c1ccccc1OCc1cn([C@H](CCCCN)C(=O)NCc2ccc(C(F)(F)F)cc2)nn1.Cl`: the MIC in the data set on Enterococcus faecalis is 4 µg/mL; against Klebsiella pneumoniae, > 32 µg/mL; in the data set on Pseudomonas aeruginosa, > 32 µg/mL; against Clostridioides difficile [1], 32 µg/mL; against Acinetobacter baumannii, 32 µg/mL; in the data set on Streptococcus pneumoniae it was 8 µg/mL. In addition, the MIC against Staphylococcus aureus [3] is 4 µg/mL; against Escherichia coli, > 32 µg/mL; in the data set with Clostridioides difficile [4], 32 µg/mL; against Staphylococcus aureus [5] it was 8 µg/mL. In addition, the CC50 at 20 h in data set [2] was > 32 µg/mL.
Take `CC(C)CCOc1ccccc1-c1ccccc1OCc1cn([C@H](CCCCN)C(=O)N[C@H](CCCNC(=N)N)Cn2cc(Cc3ccccc3)nn2)nn1.Cl.Cl`: the MIC with Enterococcus faecalis is 8 µg/mL; in the data set on Klebsiella pneumoniae, 32 µg/mL; with Pseudomonas aeruginosa, 16 µg/mL; against Clostridioides difficile [1], 16 µg/mL; against Acinetobacter baumannii it was 16 µg/mL; in the data set with Streptococcus pneumoniae it was 4 µg/mL. Also, the MIC against Staphylococcus aureus [3] worked out at 4 µg/mL; in the data set on Escherichia coli it was 8 µg/mL; with Clostridioides difficile [4] it was 8 µg/mL; against Staphylococcus aureus [5], 4 µg/mL. Also, the CC50 at 20 h in data set [2] turned out to be 17.1 µg/mL.
For the compound `CC(C)CCOc1ccc2ccccc2c1-c1c(OCC(=O)N[C@H](CCCNC(=N)N)C(=O)NCCc2ccccc2)ccc2ccccc12.Cl`, the MIC in the data set on Enterococcus faecalis is 4 µg/mL; against Klebsiella pneumoniae it was > 32 µg/mL; against Pseudomonas aeruginosa it was > 32 µg/mL; against Clostridioides difficile [1] it was 32 µg/mL; in the data set with Acinetobacter baumannii, > 32 µg/mL; with Streptococcus pneumoniae it was 2 µg/mL. The MIC is 2 µg/mL in the data set with Staphylococcus aureus [3], > 32 µg/mL in the data set on Escherichia coli, 32 µg/mL in the data set with Clostridioides difficile [4] and 4 µg/mL in the data set with Staphylococcus aureus [5]. Further, in [2], the CC50 at 20 h is > 32 µg/mL.
Turning to `CC(C)CCOc1ccccc1-c1ccccc1OCc1cn([C@H](CCCCN)C(=O)NCc2ccccc2)nn1.Cl`, the MIC against Enterococcus faecalis is 16 µg/mL; with Klebsiella pneumoniae, > 32 µg/mL; in the data set on Pseudomonas aeruginosa, 32 µg/mL; in the data set with Clostridioides difficile [1] it was 32 µg/mL; with Acinetobacter baumannii, 32 µg/mL; in the data set with Streptococcus pneumoniae, 8 µg/mL. The values for the MIC with Staphylococcus aureus [3], in the data set with Escherichia coli and against Clostridioides difficile [4] were 8 µg/mL, > 32 µg/mL and 32 µg/mL, respectively. Further, in data set [2], the CC50 at 20 h was > 32 µg/mL.
On to `CC(C)CCOc1ccccc1-c1ccccc1OCc1cn([C@H](CCCCN)C(=O)NCCc2ccccc2)nn1.Cl`, for which the MIC was 8 µg/mL against Enterococcus faecalis; > 32 µg/mL against Klebsiella pneumoniae; > 32 µg/mL against Pseudomonas aeruginosa; 32 µg/mL in the data set on Clostridioides difficile [1]; 32 µg/mL against Acinetobacter baumannii; 8 µg/mL with Streptococcus pneumoniae. Further, the MIC is 8 µg/mL in the data set on Staphylococcus aureus [3], > 32 µg/mL in the data set with Escherichia coli, 32 µg/mL in the data set on Clostridioides difficile [4] and 8 µg/mL with Staphylococcus aureus [5]. In addition, the CC50 at 20 h in data set [2] was > 32 µg/mL.
For `CC(C)CCOc1ccccc1-c1ccccc1OCc1cn([C@H](CCCCN)C(=O)N[C@H](CCCNC(=N)N)Cn2cc(C3CCCCC3)nn2)nn1.Cl.Cl`, the MIC in the data set on Enterococcus faecalis was 16 µg/mL; against Klebsiella pneumoniae it was 16 µg/mL; with Pseudomonas aeruginosa it was 16 µg/mL; against Clostridioides difficile [1], 128 µg/mL; against Acinetobacter baumannii, 8 µg/mL; in the data set with Streptococcus pneumoniae, 32 µg/mL. Further, the MIC against Staphylococcus aureus [3] was 16 µg/mL; in the data set on Escherichia coli it was 8 µg/mL; with Clostridioides difficile [4], 64 µg/mL; in the data set on Staphylococcus aureus [5] it was 4 µg/mL. Further, the CC50 at 20 h in [2] is 19.8 µg/mL.
Take `CC(C)CCOc1ccccc1-c1ccccc1OCc1cn([C@H](CCCNC(=N)N)C(=O)NCCc2ccccc2)nn1.Cl`: the MIC was 4 µg/mL in the data set on Enterococcus faecalis; > 32 µg/mL against Klebsiella pneumoniae; > 32 µg/mL against Pseudomonas aeruginosa; 32 µg/mL against Clostridioides difficile [1]; 32 µg/mL in the data set on Acinetobacter baumannii; 4 µg/mL against Streptococcus pneumoniae. In addition, the MIC in the data set on Staphylococcus aureus [3] is 2 µg/mL; with Escherichia coli it was > 32 µg/mL; against Clostridioides difficile [4] it was 8 µg/mL; against Staphylococcus aureus [5] it was 8 µg/mL. Moreover, the CC50 at 20 h in data set [2] amounted to 17.9 µg/mL.
On to `CC(C)CCOc1ccc2ccccc2c1-c1c(OCC(=O)N[C@H](CCCNC(=N)N)C(=O)NCCc2ccc(F)cc2)ccc2ccccc12.Cl`, for which the MIC with Enterococcus faecalis is > 128 µg/mL; in the data set on Klebsiella pneumoniae, > 32 µg/mL; in the data set with Pseudomonas aeruginosa, > 32 µg/mL; in the data set on Clostridioides difficile [1], 64 µg/mL; against Acinetobacter baumannii it was > 32 µg/mL; against Streptococcus pneumoniae, > 128 µg/mL. Further, the MIC against Staphylococcus aureus [3] was > 128 µg/mL; with Escherichia coli it was > 32 µg/mL; against Clostridioides difficile [4] it was > 128 µg/mL; with Staphylococcus aureus [5] it was 4 µg/mL. The CC50 at 20 h in [2] was > 32 µg/mL.
Regarding `CC(C)CCOc1ccccc1-c1ccccc1OCc1cn([C@H](CCCNC(=N)N)C(=O)NCc2cc(F)cc(F)c2)nn1.Cl`, the MIC is 8 µg/mL in the data set on Enterococcus faecalis; > 32 µg/mL against Klebsiella pneumoniae; > 32 µg/mL in the data set with Pseudomonas aeruginosa; 32 µg/mL in the data set on Clostridioides difficile [1]; > 32 µg/mL in the data set with Acinetobacter baumannii; 16 µg/mL against Streptococcus pneumoniae. In addition, the MIC against Staphylococcus aureus [3] was 8 µg/mL; in the data set with Escherichia coli, > 32 µg/mL; with Clostridioides difficile [4], 32 µg/mL. Further, the CC50 at 20 h in [2] was 22.9 µg/mL.
As for COLISTIN, the MIC was 0.25 µg/mL with Klebsiella pneumoniae, 0.25 µg/mL in the data set on Pseudomonas aeruginosa, 0.25 µg/mL in the data set on Acinetobacter baumannii and 0.125 µg/mL against Escherichia coli.
For `CC(C)CCOc1ccccc1-c1ccccc1OCc1cn([C@H](CCCNC(=N)N)C(=O)NCc2ccc(C(F)(F)F)cc2)nn1.Cl`, the MIC was 16 µg/mL against Enterococcus faecalis; > 32 µg/mL with Klebsiella pneumoniae; > 32 µg/mL in the data set with Pseudomonas aeruginosa; 128 µg/mL against Clostridioides difficile [1]; > 32 µg/mL against Acinetobacter baumannii; 32 µg/mL against Streptococcus pneumoniae. For the same compound, the MIC was 16 µg/mL in the data set with Staphylococcus aureus [3], > 32 µg/mL in the data set with Escherichia coli and 128 µg/mL against Clostridioides difficile [4]. In addition, the CC50 at 20 h in data set [2] was > 32 µg/mL.

What is called CC50 is the concentration giving 50% cytotoxicity.
